For ten compounds, inhibition and IC50 results are on record in US20240368133A1, “Compounds for the Treatment of Pain, in Particular, Neuropathic Pain, and/or Other Diseases or Disorders that are Associated with AT2R and/or AT2R Mediated Signaling” (Confo Therapeutics N.V., priority 2021, published 2024).

In experiment [1] the target is human AT1R (Homo sapiens (Human), UniProt P30556). As to the kind of experiment: Counterscreen radioligand binding assay, displacement of 125I-[Sar1, Ile8]-Angiotensin II, hAT1R WT. The conditions noted are these: for inhibition at 1 µM / inhibition at 10 µM: 125I-[Sar1, Ile8]-Ang II, semi-quantitative score; for inhibition at 1 µM: compound at 1 μM, read-out: % Displaced radioligand at 1 μM; for inhibition at 10 µM: compound at 10 μM, read-out: % Displaced radioligand at 10 μM; for IC50: HEK-293 cell membranes, read-out: Binding affinity On hAT1R IC50. How it is done:
(§1) All synthesized ligands were evaluated in a radioligand assay by displacing ^125I-[Sar1, Ile8]-Angiotensin II (Perkin Elmer, NEX248050UC) from human AT2R fused to Cb23 or human/rodent/cynomolgus/minipig/dog WT AT2R in HEK-293 cells membrane preparations, using C21 (Vicore Pharma) and Angiotensin II (endogenous ligand) as reference. The affinity was determined using an eight-point dose-response curve, each point performed in duplicates. The compounds were also evaluated in a counterscreen binding assay for displacement of ^125I-[Sar1, Ile8]-Angiotensin II binding to human AT1R in HEK-293 cell membranes. For AT1R, the percent displacement was determined at 1 μM and […] (in duplicates) or using an eight-point dose-response curve, each point performed in duplicates with Candesartan and Losartan used as reference.
(§2) For the AT2R/AT1R binding assays, cell membranes, expressing AT2R_Cb23, AT2R or AT1R, were incubated with 0.05 nM ^125I-[Sarl, Ile8]-Ang II. The ligand competition assay was performed in a total volume of 100 μL assay buffer (50 mM Tris, 5 mM MgCl2, 1 mM EDTA, 0.1% BSA, pH 7.4), at concentrations ranging from […] to 10 μM. For each experiment, each ligand concentration was tested in duplicate. Non-specific binding (NSB) was determined by the inclusion of 10 μM unlabeled [Sarl]-Ang II (Sigma Aldrich). The reaction was initiated by the addition of radioligand, after which the plates were incubated at 25° C. for one hour. The reaction was terminated by rapid filtration using a vacuum harvester, applying six washes with 100 μL of ice-cold wash buffer (50 mM Tris.HCl, pH 7.4). The filter plates GF/C (Perkin Elmer) were pre-soaked in 0.5% PEI. The residual amount of radioactivity was determined via liquid scintillation counting. IC50 values, representing the concentration at which each ligand displaced 50% of ^125I-[Sarl, Ile8]-Ang II, were calculated using GraphPad Prism 7.02 by applying a Non-linear regression equation (variable slope, four parameters) on the data. The obtained values serve as affinity estimates for each ligand and their ability to compete against the radioligand for binding with AT2R or AT1R, respectively.
(Counterscreens check selectivity or assay interference.)

Experiment [2] deals with human AT2R fused to Cb23 (Homo sapiens, UniProt P50052). As to the kind of experiment: Radioligand binding assay, displacement of 125I-[Sar1, Ile8]-Angiotensin II, hAT2R Cb23. The following applies: displacement of 125I-[Sar1, Ile8]-Angiotensin II, human AT2R fused to Cb23, HEK-293 cell membrane preparations; read-out: Binding affinity on hAT2R_Cb23 IC50. How it is done:
as §1, §2
For orientation: In a radioligand displacement assay an active substance lowers the binding of a labelled ligand.

Chain of human AT2R fused to Cb23 (P50052 whole entry, looked up, the tested form may be a part): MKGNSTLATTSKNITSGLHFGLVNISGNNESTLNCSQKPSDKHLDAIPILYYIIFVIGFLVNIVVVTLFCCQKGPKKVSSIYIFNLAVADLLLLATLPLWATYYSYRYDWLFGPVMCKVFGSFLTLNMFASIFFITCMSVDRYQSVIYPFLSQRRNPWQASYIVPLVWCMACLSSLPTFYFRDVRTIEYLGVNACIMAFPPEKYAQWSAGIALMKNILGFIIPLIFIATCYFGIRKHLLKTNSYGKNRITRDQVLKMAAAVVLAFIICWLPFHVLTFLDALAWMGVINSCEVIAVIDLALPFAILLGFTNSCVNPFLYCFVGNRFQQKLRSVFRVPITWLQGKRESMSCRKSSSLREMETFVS
Chain of human AT1R (P30556 whole entry, the tested form may be a part): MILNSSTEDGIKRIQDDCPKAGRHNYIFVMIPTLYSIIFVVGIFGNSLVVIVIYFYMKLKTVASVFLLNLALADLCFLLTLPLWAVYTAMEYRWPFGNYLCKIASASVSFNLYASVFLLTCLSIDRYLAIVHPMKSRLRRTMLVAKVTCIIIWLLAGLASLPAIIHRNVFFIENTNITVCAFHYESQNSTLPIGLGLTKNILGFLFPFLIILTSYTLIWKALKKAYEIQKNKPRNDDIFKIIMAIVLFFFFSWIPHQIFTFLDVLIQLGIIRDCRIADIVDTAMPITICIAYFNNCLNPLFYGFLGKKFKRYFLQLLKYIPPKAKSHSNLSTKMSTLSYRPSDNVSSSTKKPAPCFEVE

`CCCCOC(=O)NS(=O)(=O)c1ccc(C)cc1N1CCN(Cc2nc3ccccc3n2C)CC1` [Compound A-11, butyl N-[4-methyl-2-[4-[(1-methylbenzimidazol-2-yl)methyl]piperazin-1-yl]phenyl]sulfonylcarbamate]: in experiment [1], the inhibition at 1 µM was less than 30%; the inhibition at 10 µM is less than 30%; the IC50 – broadly, the point on the concentration scale where inhibition reaches its midpoint – came to 37.7 µM. Besides, the IC50 in experiment [2] amounted to 0.959 µM.
`CCS(=O)(=O)NC(=O)c1ccccc1N1CCN(Cc2nc3ccccc3n2C)CC1` [Compound A-13, N-ethylsulfonyl-2-[4-[(1-methylbenzimidazol-2-yl)methyl]piperazin-1-yl]benzamide]: in experiment [1], the inhibition at 1 µM was less than 30% and the inhibition at 10 µM is less than 30%. Moreover, the IC50 in experiment [2] was found to be 13.6 µM.
`CCS(=O)(=O)NC(=O)c1ccc(OC(C)C)cc1N1CCN(Cc2nc3ccccc3n2C)CC1` [Compound A-14, N-ethylsulfonyl-4-isopropoxy-2-[4-[(1-methylbenzimidazol-2-yl)methyl]piperazin-1-yl]benzamide]: in experiment [1], the inhibition at 1 µM is less than 30% and the inhibition at 10 µM is less than 30%. In experiment [2], the IC50 came to 4.82 µM.
`Cn1c(CN2CCN(c3cc(C(F)(F)F)ccc3-c3nn[nH]n3)CC2)nc2ccccc21` [Compound A-17, 1-methyl-2-[[4-[2-(2H-tetrazol-5-yl)-5-(trifluoromethyl)-phenyl]piperazin-1-yl]methyl]benzimid-azole]: in experiment [1], the inhibition at 1 µM is less than 30% and the inhibition at 10 µM was less than 30%. The IC50 in experiment [2] was determined as 14.3 µM.
Consider `C/C=C/c1ccc(-c2nn[nH]n2)c(N2CCN(Cc3nc4ccccc4n3C)CC2)c1` [Compound A-18, 1-methyl-2-[[4-[5-[(E)-prop-1-enyl]-2-(2H-tetrazol-5-yl)-phenyl]piperazin-1-yl]methyl]benz-imidazole], for which, in experiment [1], the inhibition at 1 µM is less than 30% and the inhibition at 10 µM was less than 30%. Also, the IC50 in experiment [2] is 3.85 µM.
`CCCc1ccc(-c2nn[nH]n2)c(N2CCN(Cc3nc4ccccc4n3C)CC2)c1` [Compound A-19, 1-methyl-2-[[4-[5-propyl-2-(2H-tetrazol-5-yl)phen-yl]piperazin-1-yl]-methyl]benzimid-azole]: in experiment [1], the inhibition at 1 µM is less than 30%, the inhibition at 10 µM is less than 30% and the IC50 stood at 47.4 µM. Further, in experiment [2], the IC50 came to 1.17 µM.
`CC(C)=Cc1ccc(-c2nn[nH]n2)c(N2CCN(Cc3nc4ccccc4n3C)CC2)c1` [Compound A-21, 1-methyl-2-[[4-[5-(2-methylprop-1-enyl)-2-(2H-tetrazol-5-yl)phen-yl]piperazin-1-yl]-methyl]benzimid-azole]: in experiment [1], the inhibition at 1 µM was less than 30%, the inhibition at 10 µM was less than 30% and the IC50 came out at 41.7 µM. For the same compound, the IC50 in experiment [2] was determined as 0.488 µM.
Consider `COc1ccc(-c2nn[nH]n2)c(N2CCN(Cc3nc4ccccc4n3C)CC2)c1` [Compound A-22, 2-[[4-[5-methoxy-2-(2H-tetrazol-5-yl)phenyl]piperazin-1-yl]methyl]-1-methyl-benzimidazole], for which, in experiment [1], the inhibition at 1 µM is less than 30% and the inhibition at 10 µM is less than 30%. Moreover, the IC50 in experiment [2] amounted to 19.7 µM.
With `CCOc1ccc(-c2nn[nH]n2)c(N2CCN(Cc3nc4ccccc4n3C)CC2)c1` [Compound A-23, 2-[[4-[5-ethoxy-2-(2H-tetrazol-5-yl)-phenyl]piperazin-1-yl]methyl]-1-meth-yl-benzimidazole], in experiment [1], the inhibition at 1 µM is less than 30% and the inhibition at 10 µM is less than 30%. Also, the IC50 in experiment [2] was 2.37 µM.
As for `CC(C)Oc1ccc(-c2nn[nH]n2)c(N2CCC(Cc3nc4ccccc4n3C)CC2)c1` [Compound A-25, 2-[[1-[5-isopropoxy-2-(2H-tetrazol-5-yl)phenyl]-4-piperidyl]methyl]-1-methyl-benzimid-azole], in experiment [1], the inhibition at 1 µM is less than 30% and the inhibition at 10 µM was less than 30%. The IC50 in experiment [2] stood at 8.31 µM.
